# Laboratory results as given in US6432963B1, “Pyrimidine-5-carboxamide derivatives” (Yamanouchi Pharmaceutical Co., Ltd., priority 1997, dated 2002).
# Counter-ions that a name gives are not always drawn.
# Biological target: T1, Syk tyrosine kinase (Homo sapiens, UniProt P43405)
# T1 construct: FLAG tag (8 amino acid residues) (C); made in house; host or cells: Sf-9 insect cells (baculovirus, pFASTBAC HT)
# Experiment: Syk tyrosine kinase inhibition test (SPA system)
# Assay type: biochemical
# Conditions: His-tag fused human Syk, Band 3 peptide, [γ-33P]ATP, room temperature 1 hour; read-out: inhibition activity as IC50 value upon Syk tyrosine kinase
row,IC50,SMILES
1,≤ 100 nM,NCCNc1ncc(C(N)=O)c(Nc2ccc3ccccc3c2)n1 [2-(2-aminoethylamino)-4-(2-naphthylamino)pyrimidine-5-carboxamide]
2,≤ 100 nM,NCCNc1ncc(C(N)=O)c(Nc2cccc([N+](=O)[O-])c2)n1 [2-(2-aminoethylamino)-4-(3-nitroanilino)pyrimidine-5-carboxamide]
3,≤ 100 nM,NCCNc1ncc(C(N)=O)c(Nc2cccc(C(F)(F)F)c2)n1 [2-(2-aminoethylamino)-4-(3-trifluoromethylanilino)pyrimidine-5-carboxamide]
4,≤ 100 nM,"NC(=O)c1cnc(NC2CCCCC2N)nc1Nc1cc(Cl)cc(Cl)c1 (stereo not drawn) [2-(cis-2-aminohexylamino)-4-(3,5-dichloroanilino)pyrimidine-5-carboxamide dihydrochloride]"
